Results taken from US8828988B2 (Tetraphase Pharmaceuticals, Inc., priority 2009, dated 2014).
Values after ≈ are worked out from the molar mass of the structure shown. Read-outs that look alike come from different tables or passages of the source.

How the values were obtained:
[1] = in vivo; conditions: Sprague-Dawley, rat
[2] = system: E. coli S30 extract system, coupled in vitro transcription/translation, firefly luciferase readout; assay: In vitro transcription/translation (TnT) assay; type: biochemical
[3] = system: Klebsiella pneumoniae KP109, ATCC 13883; assay: MIC assay, KP109; type: cell-based; conditions: ATCC13883, Table 9, read-out: MIC Klebsiella pneum ATCC 13883
[4] = system: Klebsiella pneumoniae KP153, tetracycline-resistant, tet(A), MDR, ESBL+; assay: MIC assay, KP153; type: cell-based; conditions: Table 9, read-out: MIC Klebsiella pneum KP153 (tet)A
[5] = system: S. pneumoniae isolates (Eurofins-Medinet, recent clinical isolates); assay: MIC50 and MIC90 analysis (Example 22)
Method: (§1) Frozen bacterial strains were thawed and subcultured onto Mueller Hinton Broth (MHB) or other appropriate media (Streptococcus requires blood and Haemophilus requires hemin and NAD). Following incubation overnight, the strains were subcultured onto Mueller Hinton Agar and again incubated overnight. […] Isolated colonies were selected to prepare a starting inoculum equivalent to a 0.5 McFarland standard. […] Antibiotics (stored frozen, thawed and used within 3 hours of thawing) and compounds were further diluted to the desired working concentrations.
(§2) The assays were run as follows. Fifty μL of MHB was added to wells 2-12 of a 96-well plate. One hundred μL of appropriately diluted antibiotic or compound was added to well 1. Fifty μL of antibiotics or compound was removed from well 1 and added to well 2 and the contents of well 2 mixed by pipetting up and down five times. Fifty μL of the mixture in well 2 was removed and added to well 3 and mixed as above. Serial dilutions were continued in the same manner through well 12. Fifty μL was removed from well 12 so that all contained 50 μL. Fifty μL of the working inoculum was then added to all test wells. A growth control well was prepared by adding 50 μL of working inoculum and 50 μL of MHB to an empty well. The plates were then incubated at 37° C. overnight, removed from the incubator and each well was read on a plate reading mirror. The lowest concentration (MIC) of test compound that inhibited the growth of the bacteria was recorded.
(§3) MIC, MIC50 and MIC90 values were determined according to CLSI methodology. S. pneumoniae and H. influenzae isolates were obtained from Eurofins-Medinet and are recent clinical isolates. S. aureus strains were collected from various geographical sources.

[6] = system: H. influenzae isolates (Eurofins-Medinet, recent clinical isolates); assay: MIC50 and MIC90 analysis (Example 22)
[7] = system: Enterococcus faecalis EF103, ATCC 29212; assay: MIC assay, EF103; type: cell-based
[8] = system: Pseudomonas aeruginosa PA111, ATCC 27853; assay: MIC assay, PA111; type: cell-based; conditions: ATCC27853, Table 9, read-out: MIC P. aeruginosa ATCC 27853
[9] = system: Enterobacter cloacae EC108, ATCC 13047; assay: MIC assay, EC108; type: cell-based; conditions: ATCC13047, Table 9, read-out: MIC Enterobacter cloaceae ATCC 13047
[10] = system: Escherichia coli EC107, ATCC 25922; assay: MIC assay, EC107; type: cell-based
[11] = system: S. aureus ATCC 13709 (Smith); assay: Mouse systemic infection model, S. aureus septicemia; conditions: survival after 48 hours
[12] = system: Streptococcus pneumoniae SP106, ATCC 49619; assay: MIC assay, SP106; type: cell-based
[13] = Pharmacokinetic analysis in Sprague-Dawley rats
[14] = system: Staphylococcus aureus SA161, HA-MRSA, tetracycline-resistant, tet(M); assay: MIC assay, SA161; type: cell-based
[15] = system: Staphylococcus aureus SA101, ATCC 29213, MSSA; assay: MIC assay, SA101; type: cell-based
[16] = system: Escherichia coli EC155, tetracycline-resistant, tet(A); assay: MIC assay, EC155; type: cell-based
[17] = system: E. coli ATCC 25922; assay: Mouse systemic infection model, E. coli septicemia; conditions: survival after 48 hours
[18] = system: Acinetobacter baumannii AB110, ATCC 19606; assay: MIC assay, AB110; type: cell-based; conditions: ATCC19606, Table 9, read-out: MIC A.baum AB110
[19] = system: S. aureus strains collected from various geographical sources; assay: MIC50 and MIC90 analysis (Example 22)
Method: as §1, §2, §3

[20] = system: Staphylococcus aureus SA100, ATCC 13709, MSSA, Smith strain; assay: MIC assay, SA100; type: cell-based
[21] = system: Streptococcus pneumoniae SP160, tetracycline-resistant, tet(M); assay: MIC assay, SP160; type: cell-based
[22] = system: Staphylococcus aureus SA158, tetracycline-resistant tet(K); assay: MIC assay, SA158; type: cell-based
[23] = system: Enterococcus faecalis EF159, tetracycline-resistant, tet(M); assay: MIC assay, EF159; type: cell-based
[24] = after IV dosing, single dose 1 mg/kg

CN(C)c1ncc(O)c2c1C[C@H]1C[C@H]3[C@H](N(C)C)C(O)=C(C(N)=O)C(=O)[C@@]3(O)C(O)=C1C2=O [Compound 109]
AUC(0-t) ([1]; iv, 1 mg/kg): 1090 ng·h/mL | Cmax ([1]; iv, 1 mg/kg): 603 ng/mL | Tmax ([1]; iv, 1 mg/kg): 0.08 h | half-life ([1]; iv, 1 mg/kg): 3 h | bioavailability ([1]; oral, 10 mg/kg): 13% | AUC(0-t) ([1]; po, 10 mg/kg): 1250 ng·h/mL | Cmax ([1]; po, 10 mg/kg): 192 ng/mL | Tmax ([1]; po, 10 mg/kg): 1.4 h | half-life ([1]; po, 10 mg/kg): 4.51 h | TnT IC50 [2]: 0.76 µg/mL | IC50, in vitro transcription/translation system ([2]; E. coli S30 extract, luciferase readout): sub-μg/ml | E. coli TnT ([2]; Table 8): 0.9 µg/mL | MIC [3]: 0.5 µg/mL (≈ 1.09 µM) | MIC [4]: > 32 µg/mL | MIC Range ([5]; S. pneumoniae (n = 20)): ≦0.016-8 μg/ml | MIC50 ([5]; Streptococcus pneumoniae): 2 µg/mL (≈ 4.36 µM) | MIC90 ([5]; Streptococcus pneumoniae): 4 µg/mL (≈ 8.72 µM) | MIC Range ([6]; H. influenzae (n = 12)): 0.063 to 4 µg/mL | MIC50 ([6]; Haemophilus influenzae): 0.5 µg/mL (≈ 1.09 µM) | MIC90 ([6]; Haemophilus influenzae): 2 µg/mL (≈ 4.36 µM) | MIC ([7]; Enterococcus faecalis, ATCC29212, Table 8, read-out: MIC E. faecalis ATCC 29212): 1 µg/mL (≈ 2.18 µM) | MIC E. faecalis ATCC 29212 ([7]; Table 9): 1 µg/mL (≈ 2.18 µM) | MIC [8]: 8 µg/mL (≈ 17.4 µM) | MIC [9]: 1 µg/mL (≈ 2.18 µM) | MIC ([10]; ATCC25922, Table 8, read-out: MIC E. coli ATCC 25922): 0.13 µg/mL (≈ 0.284 µM) | MIC ([10]; ATCC25922, Table 9, read-out: MIC E. coli ATCC 25922): 0.13 µg/mL (≈ 0.284 µM) | MIC ([10]; ATCC25922, Table 12, read-out: MIC E. coli ATCC 25922): 0.13 µg/mL (≈ 0.284 µM) | PD50 in the mouse septicemia model against S. aureus ([11]; CD-1 mice, IP infection, intravenous treatment one hour post-challenge): < 0.3 mg/kg | PD50 ([11]; mouse septicemia, S. aureus ATCC 13709, intravenous treatment one hour post-challenge): <0.30 mg/kg | MIC ([12]; ATCC49619, Table 8, read-out: MIC S. pneumoniae ATCC 49619): 0.031 µg/mL (≈ 0.0676 µM) | MIC ([12]; ATCC49619, Table 9, read-out: MIC S. pneum ATCC 49619): 0.03 µg/mL (≈ 0.0654 µM) | Clobs ([13]; IV, single dose 1 mg/kg, mean): 15.311 mL/min/kg | Vzobs ([13]; IV, single dose 1 mg/kg, mean): 4.17697 L/kg | half-life ([13]; IV, single dose 1 mg/kg, mean): 3.14 h | AUC [13, 24]: 1087 ng·h/mL | Cl [13, 24]: 15.3 mL/min/kg | Vz [13, 24]: 4.177 L/kg | % F. ([13]; oral bioavailability, PO 10 mg/kg vs IV 1 mg/kg): 12.74% | MIC ([14]; Table 8, read-out: MIC S. aureus MRSA, tetM): 16 µg/mL (≈ 34.9 µM) | MIC ([14]; Table 9, read-out: MIC MRSA (tet)M SA161): 32 µg/mL (≈ 69.8 µM) | MIC ([15]; Table 8, read-out: MIC S. aureus ATCC 29213): 0.031 µg/mL (≈ 0.0676 µM) | MIC ([15]; Table 9, read-out: MIC S. aureus ATCC 29213): 0.03 µg/mL (≈ 0.0654 µM) | MIC ([16]; Table 8, read-out: MIC E. coli tetA): > 32 µg/mL | MIC ([16]; Table 9, read-out: MIC E. coli EC155 (tet)A): > 32 µg/mL | PD50 in the mouse septicemia model against E. coli ([17]; CD-1 mice, IP infection, treatment one hour post-challenge): 4.3 mg/kg | PD50 ([17]; mouse septicemia, E. coli ATCC 25922, treatment one hour post-challenge): 4.3 mg/kg | MIC [18]: 0.5 µg/mL (≈ 1.09 µM) | MIC Range ([19]; S. aureus (n = 20)): ≦0.016-1 μg/ml | MIC50 ([19]; Staphylococcus aureus): ≤ 0.016 µg/mL | MIC90 ([19]; Staphylococcus aureus): ≤ 0.016 µg/mL | MIC ([20]; Table 9, read-out: MIC S. aureus ATCC 13709): 0.13 µg/mL (≈ 0.284 µM) | MIC ([20]; Table 12, read-out: MIC S. aureus ATCC 13709): 0.25 µg/mL (≈ 0.545 µM) | MIC ([21]; Table 8, read-out: MIC S. pneumoniae tetM): 8 µg/mL (≈ 17.4 µM) | MIC ([21]; Table 9, read-out: MIC S. pneum SP160 (tet)M): 8 µg/mL (≈ 17.4 µM) | MIC ([22]; Table 8, read-out: MIC S. aureus tetK): 2 µg/mL (≈ 4.36 µM) | MIC ([22]; Table 9, read-out: MIC S. aureus SA158 (tet)K): 1 µg/mL (≈ 2.18 µM) | MIC ([23]; Table 8, read-out: MIC E. faecalis tetM): 32 µg/mL (≈ 69.8 µM) | MIC ([23]; Table 9, read-out: MIC E. faecalis EF159 (tet)M): 32 µg/mL (≈ 69.8 µM)
